Experiments:
MRSA 33 = experiment: MIC by agar incorporation method, MRSA 33; type: cell-based, Methicillin Resistant Staphylococcus aureus; design: unit not given here; details: Mueller Hinton agar, 10^4 CFU/spot, 24 hours
Ent. faecalis ATCC 29212 = experiment: MIC by agar incorporation method, E.faecalis 29212; type: cell-based, Enterococcus faecalis; design: unit not given here; details: Mueller Hinton agar, 10^4 CFU/spot, 18 hours
Excerpt: 3) Ent. faecalis ATCC 29212—Enterococcus faecalis ATCC 29212

S.aureus ATCC 25923 = experiment: MIC by agar incorporation method, S.aureus 25923; type: cell-based, Staphylococus aureus; design: unit not given here; details: Mueller Hinton agar, 10^4 CFU/spot, 18 hours
VRE 6A = experiment: MIC by agar incorporation method, VRE 6A; type: cell-based, Enterococcus faecium; design: unit not given here; details: Mueller Hinton agar, 10^4 CFU/spot, 18 hours
Excerpt: 4) Ent. faecium […]—Enterococcus faecium 6A Van®, Cipro®

Strep.pyog. ATCC 19615 = experiment: MIC by agar incorporation method, S.pyogenes 19615; type: cell-based, Streptococcus pyogenes; design: unit not given here; details: Mueller Hinton agar, 10^4 CFU/spot, 18 hours
Excerpt: 6) Strep.pyog. ATCC 19615—Streptococcus pyogenes

Strep. pne. ATCC 6303 = experiment: MIC by agar incorporation method, S. pneum 6303; type: cell-based, Streptococcus pneumoniae; details: Mueller Hinton agar, 10^4 CFU/spot, 18 hours
Excerpt: 5) Strep. pne. ATCC 6303—Streptococcus pneumoniae ATCC 6303

MRSA 15187 = experiment: MIC by agar incorporation method, MRSA 15187; type: cell-based, Methicillin Resistant Staphylococcus aureus; design: unit not given here; details: Mueller Hinton agar, 10^4 CFU/spot, 24 hours
Excerpt: 2) MRSA 15187—Methicillin Resistant Staphylococcus aureus

S. pneum AB 34 = experiment: MIC by agar incorporation method, S. pneum AB 34; type: cell-based, Streptococcus pneumoniae; design: unit not given here; details: Mueller Hinton agar, 10^4 CFU/spot, 18 hours
MRSA 562 = experiment: MIC by agar incorporation method, MRSA 562; type: cell-based, Methicillin Resistant Staphylococcus aureus; design: unit not given here; details: Mueller Hinton agar, 10^4 CFU/spot, 24 hours

Row | In Vitro (MIC) MRSA 33 (MRSA 33) | In Vitro (MIC) E.faecalis 29212 (Ent. faecalis ATCC 29212) | In Vitro (MIC) S.aureus 25923 (S.aureus ATCC 25923) | In Vitro (MIC) VRE 6A (VRE 6A) | In Vitro (MIC) S.pyogenes 19615 (Strep.pyog. ATCC 19615) | In Vitro (MIC) S. pneum 6303 (Strep. pne. ATCC 6303) [µg/mL] | In Vitro (MIC) MRSA 15187 (MRSA 15187) | In Vitro (MIC) S. pneum AB 34 (S. pneum AB 34) | In Vitro (MIC) MRSA 562 (MRSA 562) | SMILES
1 | 2 | 2 | 2 | 2 | 1 | 1 | 2 | 4 | 1 | CC(=O)NC[C@H]1CN(c2ccc(N3CCCN(Cc4ccc([N+](=O)[O-])o4)CC3)c(F)c2)C(=O)O1 [Compound No. 52, (S)-N-[[3-[3-Fluoro-4-[N-1-[4-{2-furyl(5-nitro)methyl}]homopiperazinyl]phenyl]-2-oxo-5-oxazolidinyl]methyl]acetamide]
2 | 0.5 | 1 | 1 | 0.5 | 0.25 | 8 | 0.5 | 8 | 0.5 | CC(=O)NC[C@H]1CN(c2ccc(N3CCCN(C(=O)c4ccc([N+](=O)[O-])s4)CC3)c(F)c2)C(=O)O1 [Compound No. 54, (S)-N-[[3-[3-Fluoro-4-[N-1-[4-{2-thiophenoyl-(5-nitro)}]homopiperazinyl]phenyl]-2-oxo-5-oxazolidinyl]methyl]acetamide]
3 | 2 | 0.25 | 2 | 0.25 | 4 | 8 | 0.5 | 8 | 1 | CC(=O)NC[C@H]1CN(c2ccc(N3CCCN(C(=O)c4ccc([N+](=O)[O-])o4)CC3)c(F)c2)C(=O)O1 [Compound No. 55, (S)-N-[[3-[3-Fluoro-4-[N-1-[4-{2-furoyl-(5-nitro)}]homopiperazinyl]phenyl]-2-oxo-5-oxazolidinyl]methyl]acetamide]
4 | 4 | 4 | 4 | 4 | 4 | 8 | 4 | 16 | 2 | CC(=O)NC[C@H]1CN(c2ccc(N3CCN(Cc4ccc([N+](=O)[O-])o4)CC3C)c(F)c2)C(=O)O1 (stereo partly drawn) [Compound No. 58, (S)-N-[[3-[3-Fluoro-4-[N-1-[2-methyl-4-{2-furyl(5-nitro)methyl}]-piperazinyl]phenyl]-2-oxo-5-oxazolidinyl]methyl]acetamide]
5 | 1 | 1 | 2 | 2 | 8 | 8 | 1 | 8 | 1 | CC(=O)NC[C@H]1CN(c2ccc(N3CCN(C(=O)c4ccc([N+](=O)[O-])o4)CC3C)c(F)c2)C(=O)O1 (stereo partly drawn) [Compound No. 59, (S)-N-[[3-[3-Fluoro-4-[N-1-[2-methyl-4-{2furoyl-(5-nitro)}]-piperazinyl]phenyl]-2-oxo-5-oxazolidinyl]methyl]acetamide]
6 | <0.125 | 1 | 0.25 | 1 | 0.5 | 4 | <0.125 | 4 | <0.125 | CC(=O)NC[C@H]1CN(c2ccc(N3CCN(C(=O)c4ccc([N+](=O)[O-])s4)CC3C)c(F)c2)C(=O)O1 (stereo partly drawn) [Compound No. 60, (S)-N-[[3-[3-Fluoro-4-[N-1-[2-methyl-4-{2-thiophenoyl-(5-nitro)}]-piperazinyl]phenyl]-2-oxo-5-oxazolidinyl]methyl]acetamide]
7 | 4 | 4 | 4 | 4 | 2 | 2 | 4 | 2 | 4 | CC(=O)NC[C@H]1CN(c2ccc(N3C(C)CN(C(=O)c4ccco4)CC3C)c(F)c2)C(=O)O1 (stereo partly drawn) [Compound No. 61, (S)-N-[[3-[3-Fluoro-4-[N-1-[2,6-dimethyl-4-{2-furoyl-}]-piperazinyl]phenyl]-2-oxo-5-oxazolidinyl]methyl]acetamide]
8 | 8 | 8 | 16 | 8 | 16 | 16 | 8 | 16 | 8 | CC(=O)NC[C@H]1CN(c2ccc(N3C(C)CN(Cc4ccc([N+](=O)[O-])o4)CC3C)c(F)c2)C(=O)O1 (stereo partly drawn) [Compound No. 63, (S)-N-[[3-[3-Fluoro-4-[N-1-[2,6-dimethyl-4-{2-furyl-(5-nitro)methyl-}]-piperazinyl]phenyl]-2-oxo-5-oxazolidinyl]methyl]acetamide]
9 | 8 | 8 | 8 | 8 | 16 | 16 | 8 | 16 | 8 | CC(=O)NC[C@H]1CN(c2ccc(N3C(C)CN(C(=O)Cc4cccs4)CC3C)c(F)c2)C(=O)O1 (stereo partly drawn) [Compound No. 66, (S)-N-[[3-[3-Fluoro-4-[N-1-[2,6-dimethyl-4-(2-thienylacetyl)]-piperazinyl]phenyl]-2-oxo-5-oxazolidinyl]methyl]acetamide]
10 | 4 | 4 | 4 | 4 | 2 | 4 | 4 | 4 | 4 | CC(=O)NC[C@H]1CN(c2ccc(N3CCN(C(=O)Cc4cccs4)C(C)C3)c(F)c2)C(=O)O1 (stereo partly drawn) [Compound No. 68, (S)-N-[[3-[3-Fluoro-4-[N-1-[3-methyl-4-{2-thienylacetyl-}]-piperazinyl]phenyl]-2-oxo-5-oxazolidinyl]methyl]acetamide]
11 | 1 | 0.5 | 1 | 0.5 | 2 | 8 | 1 | 8 | 0.5 | CC(=O)NC[C@H]1CN(c2ccc(N3CCN(C(=O)c4ccc([N+](=O)[O-])o4)C(C)C3)c(F)c2)C(=O)O1 (stereo partly drawn) [Compound No. 69, (S)-N-[[3-[3-Fluoro-4-[N-1-[3-methyl-4-{2-furoyl-(5-nitro)}]-piperazinyl]phenyl]-2-oxo-5-oxazolidinyl]methyl]acetamide]
12 | <0.25 | 2 | <0.25 | 1 | <0.25 | 4 | 0.5 | 4 | <0.25 | CC(=O)NC[C@H]1CN(c2ccc(N3CCN(C(=O)c4ccc([N+](=O)[O-])s4)C(C)C3)c(F)c2)C(=O)O1 (stereo partly drawn) [Compound No. 70, (S)-N-[[3-[3-Fluoro-4-[N-1-[3-methyl-4-{2-thienoyl-(5-nitro)}]-piperazinyl]phenyl]-2-oxo-5-oxazolidinyl]methyl]acetamide]
13 | 4 | >8 | 4 | >8 | >8 | >8 | 2 | >8 | 2 | CC(=O)NC[C@H]1CN(c2ccc(N3CCN(Cc4oc(C=O)cc4C)CC3)c(F)c2)C(=O)O1 [Compound No. 71]
14 | 1 | 1 | <0.5 | 1 | 8 | 8 | <0.5 | 8 | <0.5 | CC(=O)NC[C@H]1CN(c2ccc(N3CCC(N(C)C(=O)c4ccc([N+](=O)[O-])o4)C(C)C3)c(F)c2)C(=O)O1 (stereo partly drawn) [Compound No. 74, (S)-N-[[3-[3-Fluoro-4-[[3-methyl-4-{N-methyl-2-furoyl-(5-nitro)}]-aminopiperidine-1-y]phenyl]-2-oxo-5-oxazolidinyl]methyl]acetamide]

— patent US20040242591A1, “Oxazolidinone derivatives as pontential antimicrobials” (priority 2001, published 2004)
